The supplement of paper PMC10307832

Legend:
Test in all cases: relative viability (nuclei count vs DMSO), 5 days (fraction); higher = more cells survive
[1] = compound: COc1cc(Nc2ncc(F)c(Nc3ccc4c(n3)NC(=O)C(C)(C)O4)n2)cc(OC)c1OC [R406] + Nc1ncn([C@H]2C[C@H](O)[C@@H](CO)O2)c(=O)n1 [Decitabine] (partner 2 µM)
How it was run: (§1)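 One day after seeding in 1536-well plates, lung cancer cell lines were dosed by pin tool. Dosing was either single-drug or a fixed anchor-drug dose plus five library-drug doses (not always all listed) in √10 steps. After 5 days, nuclei were stained in one fix-and-stain step and counted on 4× images, and relative viability is the nuclei count of treated wells over that of vehicle wells, given as the median of duplicate plates.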

[2] = compound: COc1cc(Nc2ncc(F)c(Nc3ccc4c(n3)NC(=O)C(C)(C)O4)n2)cc(OC)c1OC [R406] + N=C(N)NC(=N)NCCc1ccccc1 [Phenformin] (partner 250 µM)
How it was run: as §1

[3] = compound: COc1cc(Nc2ncc(F)c(Nc3ccc4c(n3)NC(=O)C(C)(C)O4)n2)cc(OC)c1OC [R406] + CC(=O)Nc1cccc(-n2c(=O)n(C3CC3)c(=O)c3c(Nc4ccc(I)cc4F)n(C)c(=O)c(C)c32)c1 [Trametinib] (partner 0.02 µM)
How it was run: as §1

[4] = compound: O=C(/C=C/c1cccnc1)NCCCCC1CCN(C(=O)c2ccccc2)CC1 [Daporinad] + CC1(C)CCC(c2ccc(Cl)cc2)=C(CN2CCN(c3ccc(C(=O)NS(=O)(=O)c4ccc(N[C@H](CCN5CCOCC5)CSc5ccccc5)c(S(=O)(=O)C(F)(F)F)c4)cc3)CC2)C1 [Navitoclax] (partner 0.5 µM)
How it was run: as §1

Cell Line | relative viability ([1]; first compound 0.08 µM) | relative viability ([1]; first compound 0.253 µM) | relative viability ([1]; first compound 0.8 µM) | relative viability ([1]; first compound 2.53 µM) | relative viability ([1]; first compound 8 µM) | relative viability ([2]; first compound 0.08 µM) | relative viability ([2]; first compound 0.253 µM) | relative viability ([2]; first compound 0.8 µM) | relative viability ([2]; first compound 2.53 µM) | relative viability ([2]; first compound 8 µM) | relative viability ([3]; first compound 0.08 µM) | relative viability ([3]; first compound 0.253 µM) | relative viability ([3]; first compound 0.8 µM) | relative viability ([3]; first compound 2.53 µM) | relative viability ([3]; first compound 8 µM) | relative viability ([4]; first compound 0.0005 µM) | relative viability ([4]; first compound 0.001581 µM) | relative viability ([4]; first compound 0.005 µM) | relative viability ([4]; first compound 0.01581 µM)
LC-2-ad | 0.775 | 0.776 | 0.797 | 0.533 | 0.401 | 0.592 | 0.561 | 0.579 | 0.384 | 0.25 | 0.912 | 0.907 | 0.971 | 0.465 | 0.334 | 0.43 | 0.544 | 0.553 | 0.393
CAL-12T |  |  |  |  |  | 0.57 | 0.667 | 0.668 | 0.353 | 0.14 | 0.343 | 0.351 | 0.378 | 0.312 | 0.175 | 1.33 | 0.925 | 0.518 | 0.172
SK-LU-1 | 0.583 | 0.832 | 0.728 | 0.599 | 0.476 | 0.597 | 0.608 | 0.628 | 0.175 | 0.0854 | 0.535 | 0.531 | 0.55 | 0.157 | 0.195 | 0.901 | 0.646 | 0.672 | 1.1
NCI-H1650 | 0.475 | 0.407 | 0.359 | 0.413 | 0.411 | 0.438 | 0.497 | 0.508 | 0.154 | 0.146 | 0.604 | 0.585 | 0.633 | 0.054 | 0.124 | 1.21 | 1.44 | 1.28 | 0.501
BEN | 0.679 | 0.793 | 0.726 | 0.683 | 0.441 | 0.267 | 0.283 | 0.256 | 0.26 | 0.249 | 0.974 | 0.992 | 1.24 | 1.17 | 0.897 | 0.074 | 0.147 | 0.0521 | 0.083
EMC-BAC-2 | 0.942 | 1.03 | 1.06 | 0.974 | 0.855 | 0.516 | 0.587 | 0.616 | 0.388 | 0.198 | 0.907 | 0.956 | 0.804 | 1.06 | 0.917 | 1.16 | 1.16 | 1.01 | 0.318
LU99A | 0.972 | 0.87 | 0.888 | 0.61 | 0.591 | 0.789 | 0.99 | 0.95 | 0.556 | 0.759 | 0.532 | 0.522 | 0.56 | 0.458 | 0.358 | 0.71 | 0.833 | 0.94 | 0.931
